# Assay results: patent US9833497B2, “Human originated EGF domain proteins and use of the same” (CHENGDU SOURCEBIO LIMITED-LIABILITY COMPANY, priority 2013, dated 2017)
# What was measured:
# Assay type in all cases: cell-based
# [1] = test system: Proteus mirabilis; assay: MIC against Gram-negative bacteria: Proteus mirabilis; conditions: 5×10^5 CFU/mL
# How it was run: (§1)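 Bacteria grown in LB at 37° C to McFarland 0.5, resuspended and seeded at 5×10^5 CFU/mL in 96-well plates. Purified human EGF-domain proteins two-fold serially diluted, triplicate wells; cultured at 37° C, shaking 175 rpm. MIC = lowest protein concentration with no growth.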
# [2] = test system: Enterobacter cloacae; assay: MIC against Gram-negative bacteria: Enterobacter cloacae; conditions: 5×10^5 CFU/mL
# How it was run: as §1
# [3] = test system: Citrobacter diversus; assay: MIC against Gram-negative bacteria: Citrobacter diversus; conditions: 5×10^5 CFU/mL
# How it was run: as §1
# [4] = test system: Pseudomonas aeruginosa; assay: MIC against Gram-negative bacteria: Pseudomonas aeruginosa; conditions: 5×10^5 CFU/mL
# How it was run: as §1
# [5] = test system: Aeromonas hydrophila; assay: MIC against Gram-negative bacteria: Aeromonas hydrophila; conditions: 5×10^5 CFU/mL
# How it was run: as §1
# [6] = test system: Moraxella catarrhalis; assay: MIC against Gram-negative bacteria: Moraxella catarrhalis; conditions: 5×10^5 CFU/mL
# How it was run: as §1
# [7] = test system: Serratia marcescens; assay: MIC against Gram-negative bacteria: Serratia marcescens; conditions: 5×10^5 CFU/mL
# How it was run: as §1
# [8] = test system: Proteus vulgaris; assay: MIC against Gram-negative bacteria: Proteus vulgaris; conditions: 5×10^5 CFU/mL
# How it was run: as §1
# [9] = test system: E. coli BL21; assay: MIC against Gram-negative bacteria: E. coli BL21; conditions: 5×10^5 CFU/mL
# How it was run: as §1
# [10] = test system: Klebsiella pneumonia; assay: MIC against Gram-negative bacteria: Klebsiella pneumonia; conditions: 5×10^5 CFU/mL
# How it was run: as §1
# [11] = test system: E. coli DH5α; assay: Antibacterial activity: MIC and growth curve against E. coli DH5α in 96-well plate; conditions: minimal inhibitory concentration against E. coli DH5α; 96-well plate, 5×10^5 CFU/mL, 37° C., judged after 8 h
# How it was run: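 Log-phase bacteria (OD600 ~0.5) resuspended in LB at 5×10^5 CFU/mL, exposed to recombinant protein at 50, 25, 12.5 μg/mL final in triplicate, 37 °C shaking at 175 rpm. OD600 read every 30 min; MIC is lowest concentration showing no growth.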
# [12] = Proteus mirabilis, 10 h cultivation at 37° C.
# [13] = Enterobacter cloacae, 10 h cultivation at 37° C.
# [14] = Citrobacter diversus, 10 h cultivation at 37° C.
# [15] = Pseudomonas aeruginosa, 10 h cultivation at 37° C.
# [16] = Aeromonas hydrophila, 10 h cultivation at 37° C.
# [17] = Moraxella catarrhalis, 10 h cultivation at 37° C.
# [18] = Serratia marcescens, 10 h cultivation at 37° C.
# [19] = Proteus vulgaris, 10 h cultivation at 37° C.
# [20] = Klebsiella pneumonia, 10 h cultivation at 37° C.
# [21] = P. mirabilis, 10 h cultivation at 37° C.
# [22] = E. cloacae, 10 h cultivation at 37° C.
# [23] = C. diversus, 10 h cultivation at 37° C.
# [24] = P. aeruginosa, 10 h cultivation at 37° C.
# [25] = A. hydrophila, 10 h cultivation at 37° C.
# [26] = M. catarrhalis, 10 h cultivation at 37° C.
# [27] = S. marcescens, 10 h cultivation at 37° C.
# [28] = P. vulgaris, 10 h cultivation at 37° C.
# [29] = K. pneumonia, 10 h cultivation at 37° C.
# [30] = Proteus mirabilis, 96-well plate, 37° C., 10 h
# [31] = Enterobacter cloacae, 96-well plate, 37° C., 10 h
# [32] = Citrobacter diversus, 96-well plate, 37° C., 10 h
# [33] = Pseudomonas aeruginosa, 96-well plate, 37° C., 10 h
# [34] = Aeromonas hydrophila, 96-well plate, 37° C., 10 h
# [35] = Moraxella catarrhalis, 96-well plate, 37° C., 10 h
# [36] = Serratia marcescens, 96-well plate, 37° C., 10 h
# [37] = Proteus vulgaris, 96-well plate, 37° C., 10 h
# [38] = Klebsiella pneumonia, 96-well plate, 37° C., 10 h
# [39] = 10 h cultivation at 37° C., two-fold serial dilution
substance,measurement,setting,value
PRT1347 (NVDECLSQPCKNGATCKDGANSFRCLCAAGFTGSHCE; listed as Homo sapiens),MIC against P. mirabilis,[1]; [12],50 µg/mL
same,MIC against E. cloacae,[2]; [13],25 µg/mL
same,MIC against C. diversus,[3]; [14],12.5 µg/mL
same,MIC against P. aeruginosa,[4]; [15],25 µg/mL
same,MIC against A. hydrophila,[5]; [16],25 µg/mL
same,MIC against M. catarrhalis,[6]; [17],25 µg/mL
same,MIC against S. marcescens,[7]; [18],12.5 µg/mL
same,MIC against P. vulgaris,[8]; [19],100 µg/mL
same,MIC against E. coli BL21,[9]; 10 h cultivation at 37° C.,12.5 µg/mL
same,MIC against K. pneumonia,[10]; [20],50 µg/mL
same,MIC,[11],25 µg/mL
PRT258 (CSHPDRGGCSENAECVPGSLGTHHCTCHKGWSGDGRVC; listed as Homo sapiens),MIC (μg/mL) P. mirabilis,[1]; [21],25 µg/mL
same,MIC (μg/mL) E. cloacae,[2]; [22],50 µg/mL
same,MIC (μg/mL) C. diversus,[3]; [23],25 µg/mL
same,MIC (μg/mL) P. aeruginosa,[4]; [24],50 µg/mL
same,MIC (μg/mL) A. hydrophila,[5]; [25],12.5 µg/mL
same,MIC (μg/mL) M. catarrhalis,[6]; [26],12.5 µg/mL
same,MIC (μg/mL) S. marcescens,[7]; [27],25 µg/mL
same,MIC (μg/mL) P. vulgaris,[8]; [28],50 µg/mL
same,MIC (μg/mL) E. coli BL21,[9]; 10 h cultivation at 37° C.,12.5 µg/mL
same,MIC (μg/mL) K. pneumonia,[10]; [29],12.5 µg/mL
same,MIC,[11],50 µg/mL
PRT195 (MGYNCNATTKCKGKGICNNFGNCQCFPGHRPPDCK; listed as Homo sapiens),MIC (μg/mL) P. mirabilis,[1]; [21],50 µg/mL
same,MIC (μg/mL) E. cloacae,[2]; [22],12.5 µg/mL
same,MIC (μg/mL) C. diversus,[3]; [23],12.5 µg/mL
same,MIC (μg/mL) P. aeruginosa,[4]; [24],50 µg/mL
same,MIC (μg/mL) A. hydrophila,[5]; [25],50 µg/mL
same,MIC (μg/mL) M. catarrhalis,[6]; [26],25 µg/mL
same,MIC (μg/mL) S. marcescens,[7]; [27],12.5 µg/mL
same,MIC (μg/mL) P. vulgaris,[8]; [28],25 µg/mL
same,MIC (μg/mL) E. coli BL21,[9]; 10 h cultivation at 37° C.,12.5 µg/mL
same,MIC (μg/mL) K. pneumonia,[10]; [29],50 µg/mL
same,MIC,[11],25 µg/mL
PRT1332 (FGPSCSSVCNCVHGVCNSGLDGDGTCECYSAYTGPKCD; listed as Homo sapiens),MIC against P. mirabilis,[1]; [30],25 µg/mL
same,MIC against E. cloacae,[2]; [31],12.5 µg/mL
same,MIC against C. diversus,[3]; [32],25 µg/mL
same,MIC against P. aeruginosa,[4]; [33],50 µg/mL
same,MIC against A. hydrophila,[5]; [34],50 µg/mL
same,MIC against M. catarrhalis,[6]; [35],12.5 µg/mL
same,MIC against S. marcescens,[7]; [36],25 µg/mL
same,MIC against P. vulgaris,[8]; [37],12.5 µg/mL
same,MIC against E. coli BL21,"[9]; 96-well plate, 37° C., 10 h",12.5 µg/mL
same,MIC against K. pneumonia,[10]; [38],25 µg/mL
same,MIC,[11],50 µg/mL
PRT1107 (LMPLCWSKPCHNNATCEDSVDNYTCHCWPGYTGAQCE; listed as Homo sapiens),MIC P. mirabilis,[1]; [39],50 µg/mL
same,MIC E. cloacae,[2]; [39],25 µg/mL
same,MIC C. diversus,[3]; [39],50 µg/mL
same,MIC P. aeruginosa,[4]; [39],12.5 µg/mL
same,MIC A. hydrophila,[5]; [39],12.5 µg/mL
same,MIC M. catarrhalis,[6]; [39],12.5 µg/mL
same,MIC S. marcescens,[7]; [39],25 µg/mL
same,MIC P. vulgaris,[8]; [39],12.5 µg/mL
same,MIC E. coli BL21,[9]; [39],50 µg/mL
same,MIC K. pneumonia,[10]; [39],50 µg/mL
same,MIC,[11],12.5 µg/mL
PRT124 (ITDRCSPNMCEHDGRCYQSWDDFICYCELTGYKGETCH; listed as Homo sapiens),MIC (μg/mL) P. mirabilis,[1]; [30],12.5 µg/mL
same,MIC (μg/mL) E. cloacae,[2]; [31],12.5 µg/mL
same,MIC (μg/mL) C. diversus,[3]; [32],12.5 µg/mL
same,MIC (μg/mL) P. aeruginosa,[4]; [33],12.5 µg/mL
same,MIC (μg/mL) A. hydrophila,[5]; [34],12.5 µg/mL
same,MIC (μg/mL) M. catarrhalis,[6]; [35],12.5 µg/mL
same,MIC (μg/mL) S. marcescens,[7]; [36],12.5 µg/mL
same,MIC (μg/mL) P. vulgaris,[8]; [37],12.5 µg/mL
same,MIC (μg/mL) E. coli BL21,"[9]; 96-well plate, 37° C., 10 h",50 µg/mL
same,MIC (μg/mL) K. pneumonia,[10]; [38],50 µg/mL
same,MIC,[11],12.5 µg/mL
PRT229 (DINECLTSSVCPEHSDCVNSMGSYSCSCQVGFISRNSTCE; listed as Homo sapiens),MIC (μg/mL) P. mirabilis,[1]; [21],12.5 µg/mL
same,MIC (μg/mL) E. cloacae,[2]; [22],12.5 µg/mL
same,MIC (μg/mL) C. diversus,[3]; [23],12.5 µg/mL
same,MIC (μg/mL) P. aeruginosa,[4]; [24],12.5 µg/mL
same,MIC (μg/mL) A. hydrophila,[5]; [25],12.5 µg/mL
same,MIC (μg/mL) M. catarrhalis,[6]; [26],12.5 µg/mL
same,MIC (μg/mL) S. marcescens,[7]; [27],12.5 µg/mL
same,MIC (μg/mL) P. vulgaris,[8]; [28],25 µg/mL
same,MIC (μg/mL) E. coli BL21,[9]; 10 h cultivation at 37° C.,25 µg/mL
same,MIC (μg/mL) K. pneumonia,[10]; [29],12.5 µg/mL
same,MIC,[11],50 µg/mL
PRT141 (DPCENNPCLHGGTCNANGTMYGCSCDQGFAGENCE; listed as Homo sapiens),MIC (μg/mL) P. mirabilis,[1]; [30],50 µg/mL
same,MIC (μg/mL) E. cloacae,[2]; [31],12.5 µg/mL
same,MIC (μg/mL) C. diversus,[3]; [32],50 µg/mL
same,MIC (μg/mL) P. aeruginosa,[4]; [33],12.5 µg/mL
same,MIC (μg/mL) A. hydrophila,[5]; [34],25 µg/mL
same,MIC (μg/mL) M. catarrhalis,[6]; [35],12.5 µg/mL
same,MIC (μg/mL) S. marcescens,[7]; [36],50 µg/mL
same,MIC (μg/mL) P. vulgaris,[8]; [37],12.5 µg/mL
same,MIC (μg/mL) E. coli BL21,"[9]; 96-well plate, 37° C., 10 h",25 µg/mL
same,MIC (μg/mL) K. pneumonia,[10]; [38],25 µg/mL
same,MIC,[11],12.5 µg/mL
PRT1272 (DVDECVEGTDNCHIDAICQNTPRSYKCICKSGYTGDGKHCK; listed as Homo sapiens),MIC against P. mirabilis,[1]; [30],50 µg/mL
same,MIC against E. cloacae,[2]; [31],25 µg/mL
same,MIC against C. diversus,[3]; [32],50 µg/mL
same,MIC against P. aeruginosa,[4]; [33],100 µg/mL
same,MIC against A. hydrophila,[5]; [34],12.5 µg/mL
same,MIC against M. catarrhalis,[6]; [35],12.5 µg/mL
same,MIC against S. marcescens,[7]; [36],50 µg/mL
same,MIC against P. vulgaris,[8]; [37],12.5 µg/mL
same,MIC against E. coli BL21,"[9]; 96-well plate, 37° C., 10 h",50 µg/mL
same,MIC against K. pneumonia,[10]; [38],50 µg/mL
same,MIC,[11],25 µg/mL
PRT1449 (ACAPGHFGADCRLQCQCQNGGTCDRFSGCVCPSGWHGVHCE; listed as Homo sapiens),MIC against P. mirabilis,[1]; [12],50 µg/mL
same,MIC against E. cloacae,[2]; [13],12.5 µg/mL
same,MIC against C. diversus,[3]; [14],50 µg/mL
same,MIC against P. aeruginosa,[4]; [15],12.5 µg/mL
same,MIC against A. hydrophila,[5]; [16],25 µg/mL
same,MIC against M. catarrhalis,[6]; [17],12.5 µg/mL
same,MIC against S. marcescens,[7]; [18],50 µg/mL
same,MIC against P. vulgaris,[8]; [19],12.5 µg/mL
same,MIC against E. coli BL21,[9]; 10 h cultivation at 37° C.,25 µg/mL
same,MIC against K. pneumonia,[10]; [20],50 µg/mL
same,MIC,[11],50 µg/mL
